Reference: patent publication US20220281835A1, “PHENOL DERIVATIVES FOR USE AS ANTIMICROBIAL, ANTIBACTERIAL, BACTERICIDE” (SPECIAL PRODUCT'S LINE S.P.A., priority 2019, published 2022)
Values after ≈ are worked out from the molar mass of the structure shown.

Columns and labels:
[1] = test system: Enterococcus faecalis strain 2 (collection); experiment: MIC/MBC broth-dilution (micromethod), CLSI; format: cell-based; details: for MBC: E. FAECALIS strain 2, kills 99,9% of initial population
Source text: (§1) Determination of Minimal Inhibitory Concentration (MIC), Minimal Bactericidal Concentration (MBC), bactericidal curves and killing rate on Gram positive and Gram negative bacteria strains, for the evaluation of the bactericidal activity of compounds of example 1 (n. 1 to 14).
(§2) Sensitivity tests have been performed in broth-dilution (micromethod) with the purpose to test the possible bacteriostatic and/or bactericidal power in different compounds, in accordance with CLSI guidelines (Clinical and Laboratory Standards Institute). In details, phenotypic methods based on in vitro MIC and MBC determination have been performed on previously isolated bacterial strains, identified and characterized at the level of their antibiotic susceptibility profile. According to MIC and MBC data, the Killing Rate was calculated as the ratio between MBC and MIC on which basis it is possible to define the compounds tested as bactericides (killing rate=1-4), or bacteriostatic (killing rate >4).
(§3) Preparation of the solution containing molecules: for each molecule to be tested, solutions were made as DMSO Stock, with a concentration of 2.560 mg/ml, used to test 12 dilutions with the following scalar drug concentrations: 512-256-128-64-32-16-8-4-2-1-0.5-0.25 μg/ml. The scalar dilutions were prepared directly on plates by using Mueller Hinton Broth (MHB) as a solvent.
(§4) Bacterial suspension preparation: cryostrains preserved at −80° C. were recovered by incubation in growth medium (Brain Heart Infusion Broth, BHI) for 24-48 hours at 37° C. followed by passages in agar growth medium (Columbia Blood Agar). Colonies with less than 30 hours are suspended in MHB with the purpose to prepare a bacterial suspension with a turbidity of 0.5 MF, containing approximately 1.5×10^8 cfu/ml. This injection is additionally diluted in MHB until reaching a final concentration of 5×10^5 cfu/ml (range 3-7×10^5 cfu/ml). Identical volumes of this bacterial suspension are added on a plate, for each well containing drug scalar dilutions, to obtain a final concentration between 512 a 0.25 μg/ml. The set up of bacterial suspensions as well as the passage on slate has always been performed within 30 minutes, in order not to alter the concentration of the bacterial suspension. Simultaneously, check in broth-microdilution only with solvent (in order to exclude that the effect of growth inhibition might be due to the drug solution solvent), positive growth control in absence of DMSO and drug, and negative purity control only with injection broth are performed. As a consequence the slate is incubated at 37° C. for 24 and 48 hours in aerobes. The 24 hours MIC is considered as the minimum drug concentration able to inhibit bacterial growth, which makes it possible to observe the absence of bacterial growth and the absence of turbidity. The same observations are valid to evaluate 48 hours MIC. After the incubation, an equal volume of bacterial suspension from each well is plated on agar growth medium and incubated for 24-48 hours at a temperature of 37° C. in aerobes, in order to define the MBC after the incubation. The MBC is evaluated as the minimum concentration of drug able to kill the 99,9% of the initial bacterial population.
(§5) Bacterial strains: the bactericidal and/or bacteriostatic power of the synthesized compounds can be determined by using standard reference strains such as: • 1. S. Aureus ATCC 25923 res kan, tob, res streptogramine (sga-sgb, efflux), res mupirocina (at low level), res trimetoprim; • 2. S. Aureus strain 1 (collection) mec a+, res kan tob gen, res quinolones, lincosamides, res streptogramine (sga-sgb), mlsb+sa constituent, mlsb constituent, res mupirocine (low level), res trimetoprim; • 3. S. Aureus strain 2 (collection) acquired penicillinase, res kan tob, res streptogramine (sga-sgb, efflux), res mupirocine (low level), res trimetoprim; • 4. Enterococcus faecalis ATCC 51299 (str+gen res at high level, mlsb res, simil van b res); • 5. […]

[2] = test system: S. Aureus strain 1 (collection) mec a+; experiment: MIC/MBC broth-dilution (micromethod), CLSI; format: cell-based; details: Staphylococcus aureus; for MBC: kills 99,9% of initial population
Source text: as §1
In details, phenotypic methods based on in vitro MIC and MBC determination have been performed on previously isolated bacterial strains, identified and characterized at the level of their antibiotic susceptibility profile. According to MIC and MBC data, the Killing Rate was calculated as the ratio between MBC and MIC on which basis it is possible to define the compounds tested as bactericides (killing rate=1-4), or bacteriostatic (killing rate >4).
as §3
as §4, with “The 24 hours MIC is considered as the minimum drug concentration able to inhibit bacterial growth, which makes it possible to observe the absence of bacterial growth and the absence of turbidity.” left out, “incubation.” for “incubation. The MBC is evaluated as the minimum concentration of drug able to kill the 99,9% of the initial bacterial population.”
Bacterial strains: the bactericidal and/or bacteriostatic power of the synthesized compounds can be determined by using standard reference strains such as: • 1. S. Aureus ATCC 25923 res kan, tob, res streptogramine (sga-sgb, efflux), res mupirocina (at low level), res trimetoprim; • 2. S. Aureus strain 1 (collection) mec a+, res kan tob gen, res quinolones, lincosamides, res streptogramine (sga-sgb), mlsb+sa constituent, mlsb constituent, res mupirocine (low level), res trimetoprim; • 3. S. Aureus strain 2 (collection) acquired penicillinase, res kan tob, res streptogramine (sga-sgb, efflux), res mupirocine (low level), res trimetoprim; • 4. Enterococcus faecalis ATCC 51299 (str+gen res at high level, mlsb res, simil van b res); • 5. Enterococcus faecalis strain 1 (collection) (str+kan res at high level str res at high level tetracycline res); • 6. Enterococcus faecalis strain 2 (collection) (kan res at high level); • 7. E. coli of Collection: RESISTANT to ampicilline, amox+ac clav, ampicillinr+sulbactam, cefalexine, cefuroxime, cefuroxime axetil, cefixime, cefpodoxime, cefotaxime, ceftazidime, ceftriaxone, netilmicine, tobramicine, ciprofloxcine, trim/sulfametox, esbl pos, SENSITIVE to meropenem and gentamicine, INTERMEDIATE to amikacine; • 8. 8.

[3] = test system: Enterococcus faecalis strain 1 (collection); experiment: MIC/MBC broth-dilution (micromethod), CLSI; format: cell-based; details: E. FAECALIS strain 1, values without asterisk
Source text: as §1, §2, §3, §4, §5

S. Aureus ATCC 25923 = experiment: MIC/MBC broth-dilution (micromethod), CLSI; format: cell-based; details: Staphylococcus aureus, ATCC25923, marked *: MIC value read at 48 hours
Source text: as §1, §2, §3, §4, §5

[4] = test system: S. Aureus strain 2 (collection); experiment: MIC/MBC broth-dilution (micromethod), CLSI; format: cell-based; details: Staphylococcus aureus, marked *: MIC value read at 48 hours
Source text: as §1, §2, §3, §4, §5

[5] = test system: Enterococcus faecalis ATCC 51299; experiment: MIC/MBC broth-dilution (micromethod), CLSI; format: cell-based; details: ATCC51299, E. FAECALIS ATCC 51299, values without asterisk
Source text: as §1, §2, §3, §4, §5

[6] = test system: P. Aeruginosa of collection; experiment: MIC/MBC broth-dilution (micromethod), CLSI; format: cell-based; details: Pseudomonas aeruginosa
Source text: as §1, §2, §3, §4, §5

[7] = E. FAECALIS strain 2, values without asterisk
[8] = marked *: MIC value read at 48 hours
[9] = E. FAECALIS strain 2, marked *: MIC value read at 48 hours

SMILES	MIC [2, 8] [µg/mL]	MIC ([2]; values without asterisk) [µg/mL]	MIC [1, 9] [µg/mL]	MBC [1] [µg/mL]	MBC [2] [µg/mL]	other results
OCC#Cc1ccc(-c2ccc(O)c(C34CC5CC(CC(C5)C3)C4)c2)cc1 [Compound 2, 3-(adamantan-1-yl)-4′-(3-hydroxyprop-1-yn-1-yl)-[1,1′-biphenyl]-4-ol]		0.5 (≈ 1.39 µM)		2 to 4 (≈ 5.58 to 11.2 µM)	4 (≈ 11.2 µM)	MIC [1, 7]: 0.5 µg/mL (≈ 1.39 µM)
CC(C)(C)c1cc(-c2ccc(/C=C/C(=O)O)cc2)ccc1O [Compound 6, E-3-(3′-tert-Butyl-4′-hydroxybiphenyl-4-yl)acrylic Acid]		64 (≈ 216 µM)				melting point: 218 °C
O=C(O)C=Cc1ccc(-c2ccc(OCCCCO)c(C34CC5CC(CC(C5)C3)C4)c2)cc1 [Compound 11, 3-[3′-Adamantan-1-yl-4′-(hydroxy-butoxy)-biphenyl-4-yl]-acrylic acid]	64 to 256 (≈ 143 to 573 µM)					MIC [3]: 128 µg/mL (≈ 287 µM); MIC (S. Aureus ATCC 25923): 128 to 256 µg/mL (≈ 287 to 573 µM); MIC [1, 7]: 128 µg/mL (≈ 287 µM); MIC [4]: 128 to 256 µg/mL (≈ 287 to 573 µM); MIC [5]: 64 µg/mL (≈ 143 µM)
O=C(O)C=Cc1ccc(-c2ccc(O)c(C34CC5CC(CC(C5)C3)C4)c2)c(C=NOCC(=O)O)c1 [Compound 14, 3-[3′-Adamant-1-yl-4′-hydroxy-2-carboxymethoxyiminomethyl-biphenyl-4-yl]-acrylic acid]	64 to 128 (≈ 135 to 269 µM)		64 to 128 (≈ 135 to 269 µM)			
N=C(N)NCc1cc(C=CC(=O)O)ccc1-c1ccc(O)c(C23CC4CC(CC(C4)C2)C3)c1.O=C(O)C(F)(F)F [Compound 15, 3-(3′-Adamantan-1-yl-2-guanidinomethyl-4′-hydroxy-biphenyl-4-yl)-acrylic acid trifluoroacetate]	16 to 32		16 to 32	32 to 64	32 to 64	
O=C(O)C=Cc1ccc(-c2cc3c(c(C45CC6CC(CC(C6)C4)C5)c2)OCCO3)cc1 [Compound 16, 3-{4-[8-(Adamantan-1-yl)-2,3-dihydro-benzo[1,4]-dioxin-6-yl]-phenyl}-acrylic acid]	2 to 4 (≈ 4.8 to 9.6 µM)		1 to 2 (≈ 2.4 to 4.8 µM)			
O=C(O)/C=C/c1ccc(-c2cc(CNC(=O)Nc3ccccc3)c(O)c(C34CC5CC(CC(C5)C3)C4)c2)cc1 [Compound 18]	4 to 8 (≈ 7.65 to 15.3 µM)		2 to 4 (≈ 3.83 to 7.65 µM)	16 (≈ 30.6 µM)	8 (≈ 15.3 µM)	
O=C(O)CCc1ccc(-c2ccc(O)c(C34CC5CC(CC(C5)C3)C4)c2)cc1 [Compound 19, 3-(3′-Adamantan-1-yl-4′-hydroxybiphenyl-4-yl)propionic Acid]	8 to 16 (≈ 21.2 to 42.5 µM)		8 to 16 (≈ 21.2 to 42.5 µM)	32 (≈ 85 µM)	16 (≈ 42.5 µM)	
CCCCC/C=C\C/C=C\CCCCCCCC(=O)Oc1ccc(-c2ccc(/C=C/C(=O)O)cc2)cc1C12CC3CC(CC(C3)C1)C2 [Compound 20, (E)-Octadeca-9,12-dienoic acid 3-adamantan-1-yl-40-(2-carboxyvinyl)-biphenyl-4-yl ester]	8 to 32 (≈ 12.6 to 50.2 µM)					MIC [1, 7]: 128 µg/mL (≈ 201 µM); MIC [6]: 20 µg/mL (≈ 31.4 µM)

Second part, led by results:

MIC [2, 8] [µg/mL]	MIC ([2]; values without asterisk) [µg/mL]	MIC [1, 9] [µg/mL]	SMILES	MBC [1] [µg/mL]	MBC [2] [µg/mL]	other results
64 to 128			N#C/C=C/c1ccc(-c2ccc(O)c(C34CC5CC(CC(C5)C3)C4)c2)cc1 (mixture of isomers) [Compound 1]	128	128	MIC [1, 7]: 32 µg/mL
	2 (≈ 5.15 µM)	0.5 to 1 (≈ 1.29 to 2.57 µM)	C/C(=C\c1ccc(-c2ccc(O)c(C34CC5CC(CC(C5)C3)C4)c2)cc1)C(=O)O [Compound 3, E-2-Methyl-3-[3′-(adamantan-1-yl)-4′-hydroxybiphenyl-4-yl]acrylic Acid]	8 (≈ 20.6 µM)	4 to 8 (≈ 10.3 to 20.6 µM)	melting point: 200 °C
	2 (≈ 5.01 µM)	0.5 to 1 (≈ 1.25 to 2.5 µM)	N#C/C(=C\c1ccc(-c2ccc(O)c(C34CC5CC(CC(C5)C3)C4)c2)cc1)C(=O)O [Compound 4]	4 (≈ 10 µM)	4 (≈ 10 µM)	
2 to 4 (≈ 5.1 to 10.2 µM)			O=C(O)/C(F)=C\c1ccc(-c2ccc(O)c(C34CC5CC(CC(C5)C3)C4)c2)cc1 [Compound 5, E-2-Fluoro-3-[3′-(adamantan-1-yl)-4′-hydroxybiphenyl-4-yl]-acrylic Acid]	16 (≈ 40.8 µM)	8 to 16 (≈ 20.4 to 40.8 µM)	MIC [1, 7]: 4 µg/mL (≈ 10.2 µM); melting point: 202 °C
	16 (≈ 41.4 µM)		COc1ccc(-c2ccc(C#CC(=O)O)cc2)cc1C12CC3CC(CC(C3)C1)C2 [Compound 7, 4-(3-(1-adamantyl)-4-methoxyphenyl)propiolic acid]			
	128 (≈ 286 µM)		O=C(O)/C=C/c1ccc(-c2ccc(OCC(=O)NO)c(C34CC5CC(CC(C5)C3)C4)c2)cc1 [Compound 9]			
	32 (≈ 69.3 µM)		CC(Oc1ccc(-c2ccc(/C=C/C(=O)O)cc2)cc1C12CC3CC(CC(C3)C1)C2)C(=O)NO (stereo not shown) [Compound 10]			
4 to 8 (≈ 8.98 to 18 µM)		2 to 4 (≈ 4.49 to 8.98 µM)	CC(=O)NCc1cc(-c2ccc(/C=C/C(=O)O)cc2)cc(C23CC4CC(CC(C4)C2)C3)c1O [Compound 17, E-3-[3′-(Acetylaminomethyl)-4′-hydroxy-5′-(adamantan-1-yl)biphenyl-4-yl]-acrylic acid]	16 (≈ 35.9 µM)	16 (≈ 35.9 µM)	
16 to 64 (≈ 39.8 to 159 µM)		32 to 64 (≈ 79.5 to 159 µM)	O=Cc1cc(-c2ccc(/C=C/C(=O)O)cc2)cc(C23CC4CC(CC(C4)C2)C3)c1O [Compound 21, E-3-[3′-Formyl-4′-hydroxy-5′-(adamantan-1-yl)-biphenyl-4-yl]-acrylic acid]			
